Experimental data taken from ChEMBL document CHEMBL1146913, “Symmetrical and unsymmetrical analogues of isoxyl; active agents against Mycobacterium tuberculosis” (2006).
In brackets after ≈: the same amount, converted by molar mass.

Legend:
Vero = test: Selectivity index, IC50 against Vero cells/MIC against Mycobacterium; type: functional
[1] = system: Mycobacterium tuberculosis; test: Antibacterial activity against Mycobacterium tuberculosis H37Rv; type: functional

Structure (SMILES)	Selectivity index (Vero)	MIC99 [1] [µg/mL]
CCCCOc1ccc(NC(=S)Nc2ccc(SCCC)cc2)cc1	45.5	0.2 (≈ 0.534 µM)
CCCCOc1ccc(NC(=S)Nc2ccc(CCCC)cc2)cc1	87	< 0.1
CCCCOc1ccc(NC(=S)Nc2ccc(SCC(C)C)cc2)cc1		> 6.25
CCCCOc1ccc(NC(=S)Nc2ccc(Cc3ccccc3)cc2)cc1	22.1	0.39 (≈ 0.999 µM)
CC(C)CSc1ccc(NC(=S)Nc2ccc(SCC(C)C)cc2)cc1	12.4	0.78 (≈ 1.93 µM)
CCCCOc1ccc(NC(=S)Nc2ccc(OCCC(C)C)cc2)cc1	89	< 0.1
CCCOc1ccc(NC(=S)Nc2ccc(OCCC)cc2)cc1	44	0.2 (≈ 0.581 µM)
CCCSc1ccc(NC(=S)Nc2ccc(Cc3ccccc3)cc2)cc1	5.28	1.56 (≈ 3.97 µM)
CC(C)CCOc1ccc(NC(=S)Nc2ccc(Cc3ccccc3)cc2)cc1	48	0.2 (≈ 0.494 µM)
CCCCOc1ccc(NC(=S)Nc2ccc(OCC(C)C)cc2)cc1	79.9	0.1 (≈ 0.268 µM)
CC(C)CCOc1ccc(NC(=S)Nc2ccc(OCC(C)C)cc2)cc1	72	0.39 (≈ 1.01 µM)
CCCCc1ccc(NC(=S)Nc2ccc(OCCC)cc2)cc1	100	< 0.1
CC(C)CCOc1ccc(NC(=S)Nc2ccc(OCCC(C)C)cc2)cc1 [TIOCARLIDE]	82	2 (≈ 4.99 µM)
